Assay type in all cases: cell-based
For one assay, the system named is MCF-7 (breast carcinoma). Briefly: MTS cell viability assay, MCF-7. The procedure: (§1) Cells were plated, the evening before treatment, for each treatment on 96-well plates (1×10^4 cells/well) in 100 μL volume per well. Analog solutions were prepared by diluting each test compound in DSMO (10 mM) with the appropriate cell growth media for each individual cell line, or in “Universal Media” if several cell lines were to be assayed in parallel, immediately prior to cell treatment. Universal Media consisted of 5 mL sodium pyruvate (100× liquid stock, MediaTech), 5 mL glucose (100×, 45% liquid stock, MediaTech), 5 mL Penicillin/Streptomycin (100× liquid stock, MediaTech), 10 mL sodium bicarbonate (50× liquid stock, MediaTech), 25 mL Fetal Calf Serum, 1.25 mL insulin (4 mg/mL, Gibco) and […] RPMI media with 2 mM L-glutamine for a total volume of 500 mL.
(§2) Cells were treated by aspirating plating media from each well and adding 80 μL of betulinic acid (control) or each analog solution in serial dilutions to the adherent cells. All treatments were performed in triplicate. Growth media (80 μL) was added to 3 blank wells (no cells) to measure background from the growth media. Growth media alone (no DMSO or test compound) was added to 3 wells containing cells to measure the baseline MTS activity. Vehicle (DMSO) control in serial dilutions, added to cells, was also included to monitor basal toxicity from DMSO. Cells were incubated at 37° C. for 72 h, or 120 h for the OVCAR cell lines. MTS reagent (per 96-well plate) were prepared by combining 2 mL of MTS working solution (Cell Titer AQueous Non-Radioactive Cell Proliferation Assay, Promega, cat#G1112), 100 μL of 0.92 mg/mL phenazine methosulfate/Dulbecco's PBS and 2.1 mL growth media. MTS reagent (40 μL) were added to each well and incubated at 37° C. for 1.5 to 4 h. Plates were gently shaken by hand until solution in each well appeared homogenous. Absorbances at 490 nm were measured on a Wallac Victor II plate reader at multiple time points following the addition of MTS reagent for each plate. Triplicate absorbance (490 nm) measurements were averaged following background (no cell) subtraction for each drug concentration. Percent Cell Viability was calculated for each drug concentration using the following equation:
(§3) {[Absorbance(analog treated)]/[Absorbance(DMSO treated)]}×100%
(§4) Cytotoxicity dose response for the triterpenoid derivatives synthesized in SK-MEL-2 (melanoma), A-375 (melanoma), Daoy (glioblastoma), LN-229 (glioblastoma), OVCAR-3 (ovarian carcinoma), HT-29 (colon carcinoma), MCF-7 (breast carcinoma) cell lines using the standard MTS assay is summarized in Table 1. In Table 1, compounds 22a-d and compounds 23a-c refer to structures 22 and 23 in Scheme 5, respectively. Compounds 24aa-an and 24ba-bq refer to structure 24 in Scheme 6. Compounds 26a-e refer to structure 26 in Scheme 6. Compounds 36a-c refer to structure 36 in Scheme 10.
(In general: Tetrazolium dyes change colour on reduction, which living cells bring about.)

A further assay has as its system A-375 (melanoma). Briefly: MTS cell viability assay, A-375. Here is the method:
as §1, §2, §3, §4

Another assay deals with LN-229 (glioblastoma). Briefly: MTS cell viability assay, LN-229. Here is the method:
as §1, §2, §3, §4

A further assay relates to H-146. Briefly: MTS cell viability assay, H-146. The procedure: as §1, §2, §3
Assay [1] deals with OVCAR-3 (ovarian carcinoma). Briefly: MTS cell viability assay, OVCAR-3. The procedure:
as §1, §2, §3, §4

Another assay relates to SK-MEL-2 (melanoma). Briefly: MTS cell viability assay, SK-MEL-2. The procedure:
as §1, §2, §3, §4

A further assay relates to Daoy. Briefly: MTS cell viability assay, Daoy. The note with it: cells incubated 72 h. The procedure: as §1, §2, §3, §4
In the next assay the test system is CEM. Briefly: MTS cell viability assay, CEM. The note with it: cells incubated 72 h. Here is the method:
as §1, §2, §3

In a further assay the test system is HT-29 (colon carcinoma). Briefly: MTS cell viability assay, HT-29. The procedure:
as §1, §2, §3, §4

[2] abbreviates: Homo sapiens, MCF7, cells incubated 72 h.
Where [3] appears, read: Homo sapiens, A-375, cells incubated 72 h.
Where [4] appears, read: Homo sapiens, LN-229, cells incubated 72 h.
Where [5] appears, read: Homo sapiens, OVCAR-3, 120 h for the OVCAR cell lines.
[6] abbreviates: Homo sapiens, SK-MEL-2, cells incubated 72 h.
Setting [7] is: Homo sapiens, HT-29, cells incubated 72 h.

A value given as a limit tells only on which side of the number the result lay.

Turning to `C=C(C)[C@@H]1CC[C@]2(C(=O)O)CC[C@]3(C)[C@H](CC[C@@H]4[C@@]5(C)CC[C@H](O)C(C)(C)[C@@H]5CC[C@]43C)[C@@H]12` [Compound 1, betulinic acid (3β-hydroxy-lup-20(29)-en-28-oic acid), reference compound], the half-maximal inhibitory concentration (IC50) in the assay with MCF-7 (breast carcinoma) (cells incubated 72 h) was determined as 30 µM; in the assay with A-375 (melanoma) (cells incubated 72 h) it was 22 µM; in the assay on LN-229 (glioblastoma) (cells incubated 72 h), 29 µM; in the assay with H-146 (cells incubated 72 h) it was 8 µM; in [1] (120 h for the OVCAR cell lines) it was 40 µM; in the assay with SK-MEL-2 (melanoma) (cells incubated 72 h), 7 µM. The IC50 in the assay with Daoy was determined as 11 µM; in the assay with CEM it was 2 µM; in the assay with HT-29 (colon carcinoma) (cells incubated 72 h) it was 31 µM.
`C=C(CO)[C@@H]1CC[C@]2(CO)CC[C@]3(C)[C@H](CC[C@@H]4[C@@]5(C)CCC(=O)C(C)(C)[C@@H]5CC[C@]43C)[C@@H]12` [Compound 7a]: the concentration for half-maximal inhibition (IC50) in the assay with MCF-7 (breast carcinoma) (setting [2]) is 43 µM; in the assay on A-375 (melanoma) (setting [3]), 40 µM; with LN-229 (glioblastoma) (setting [4]) it was more than 75 µM; with H-146 (Homo sapiens, NCI-H146, cells incubated 72 h) it was 60 µM; in [1] (setting [5]), 43 µM; with SK-MEL-2 (melanoma) (setting [6]), more than 75 µM. The IC50 with Daoy (Homo sapiens, Daoy) was more than 75 µM; in the assay with CEM (Homo sapiens, CCRF-CEM), 45 µM; in the assay with HT-29 (colon carcinoma) (setting [7]), 44 µM.
For `C=C(CO)[C@@H]1CC[C@]2(CO)CC[C@]3(C)[C@H](CC[C@@H]4[C@@]5(C)CCC(NCCOC)C(C)(C)[C@@H]5CC[C@]43C)[C@@H]12` (stereo partly drawn) [Compound 24af], the IC50 was 40 µM in the assay on MCF-7 (breast carcinoma) (cells incubated 72 h); 18 µM with A-375 (melanoma) (cells incubated 72 h); 38 µM in the assay with LN-229 (glioblastoma) (cells incubated 72 h); 40 µM in assay [1] (120 h for the OVCAR cell lines); 38 µM with SK-MEL-2 (melanoma) (cells incubated 72 h); 34 µM in the assay on Daoy. Besides, the midpoint of inhibition in the assay on HT-29 (colon carcinoma) (cells incubated 72 h), the IC50, lay at 47 µM.
Consider `C=C(CO)[C@@H]1CC[C@]2(CO)CC[C@]3(C)[C@H](CC[C@@H]4[C@@]5(C)CCC(NCCc6ccc(O)cc6)C(C)(C)[C@@H]5CC[C@]43C)[C@@H]12` (stereo partly drawn) [Compound 24ag], for which the IC50 in the assay with MCF-7 (breast carcinoma) (cells incubated 72 h) turned out to be 28 µM; in the assay on A-375 (melanoma) (cells incubated 72 h) it was 17 µM; in the assay on LN-229 (glioblastoma) (cells incubated 72 h), 17 µM; in assay [1] (120 h for the OVCAR cell lines), 5 µM; with SK-MEL-2 (melanoma) (cells incubated 72 h) it was 12 µM; with Daoy it was 16 µM. In addition, the IC50 in the assay on HT-29 (colon carcinoma) (cells incubated 72 h) was 26 µM.
Regarding `C=C(CO)[C@@H]1CC[C@]2(COC3CCCCO3)CC[C@]3(C)[C@H](CC[C@@H]4[C@@]5(C)CCC(NCCc6ccc(O)c(O)c6)C(C)(C)[C@@H]5CC[C@]43C)[C@@H]12` (stereo partly drawn) [Compound 24ai], the half-inhibitory concentration (IC50) in the assay with MCF-7 (breast carcinoma) (setting [2]) was 16 µM; in the assay with A-375 (melanoma) (setting [3]) it was 14 µM; in the assay with LN-229 (glioblastoma) (setting [4]), 16 µM; in assay [1] (setting [5]), 4 µM; in the assay with SK-MEL-2 (melanoma) (setting [6]) it was 5 µM; in the assay with Daoy (Homo sapiens, Daoy) it was 6 µM. The compound also returned a half-maximal inhibitory concentration (IC50) in the assay with HT-29 (colon carcinoma) (setting [7]) of 26 µM.
`C=C(CO)[C@@H]1CC[C@]2(CO)CC[C@]3(C)[C@H](CC[C@@H]4[C@@]5(C)CCC(NCCc6ccc(O)c(O)c6)C(C)(C)[C@@H]5CC[C@]43C)[C@@H]12` (stereo partly drawn) [Compound 24aj]: the IC50 with MCF-7 (breast carcinoma) (setting [2]) was determined as 31 µM; with A-375 (melanoma) (setting [3]), 6 µM; with LN-229 (glioblastoma) (setting [4]), 17 µM; in assay [1] (setting [5]), 18 µM; in the assay with SK-MEL-2 (melanoma) (setting [6]) it was 24 µM; in the assay with Daoy (Homo sapiens, Daoy), 34 µM. Besides, the half-maximal inhibitory concentration (IC50) in the assay with HT-29 (colon carcinoma) (setting [7]) worked out at 37 µM.
With `C=C(CO)[C@@H]1CC[C@]2(CO)CC[C@]3(C)[C@H](CC[C@@H]4[C@@]5(C)CCC(NCCNC(=O)OC(C)(C)C)C(C)(C)[C@@H]5CC[C@]43C)[C@@H]12` (stereo partly drawn) [Compound 24am], the half-maximal inhibitory concentration (IC50) amounted to 35 µM in the assay on MCF-7 (breast carcinoma) (cells incubated 72 h); 17 µM in the assay with A-375 (melanoma) (cells incubated 72 h); 17 µM with LN-229 (glioblastoma) (cells incubated 72 h); 2.5 µM in assay [1] (120 h for the OVCAR cell lines); 16 µM in the assay on SK-MEL-2 (melanoma) (cells incubated 72 h); 16 µM in the assay on Daoy. In the assay on HT-29 (colon carcinoma) (cells incubated 72 h), the concentration for half-maximal inhibition (IC50) was more than 75 µM.
On to `C=C(C)[C@@H]1CC[C@]2(COC3CCCCO3)CC[C@]3(C)[C@H](CC[C@@H]4[C@@]5(C)C=C(C=O)C(=O)C(C)(C)[C@@H]5CC[C@]43C)[C@@H]12` (stereo partly drawn) [Compound 32], for which the IC50 is 6 µM in the assay with MCF-7 (breast carcinoma) (setting [2]); 6 µM in the assay on A-375 (melanoma) (setting [3]); 2 µM in the assay with LN-229 (glioblastoma) (setting [4]); 6 µM in [1] (setting [5]); less than 2 µM with SK-MEL-2 (melanoma) (setting [6]); less than 2 µM in the assay on Daoy (Homo sapiens, Daoy). In the assay with HT-29 (colon carcinoma) (setting [7]), this compound displayed a 50% inhibitory concentration (IC50) of 6 µM.

What is called IC50 is the concentration that gives 50% inhibition. Low values mean inhibition by little substance, high ones a need for much substance.

The values above are taken from US20090062243A1, “Lupane-Type Triterpenoids Modified at 30-Position and Analogues Thereof” (ADVANCED LIFE SCIENCES, INC., priority 2007, published 2009).
